How the values were obtained:
[1] = tested on: Akt-enhanced β-catenin activity (TOP-Luc); test: HTS TOPFlash/FOPFlash luciferase reporter dose-response; type: cell-based; settings: DNR dose-response (FIG. 13A)
[2] = tested on: blast cells, LSCs and HSPCs of leukemic Pten:β-cat^Act mice; type: in vivo; settings: low-dose DNR with chemotherapy
Procedure: Leukemic mice were treated with vehicle, chemotherapy, [Low]DXR (5×0.5 mg/kg), clinical DXR (1×20 mg/kg), or chemotherapy+[Low]DXR as described in FIG. S2.
Average frequency of each population (n≥6 per group) is shown.
Absolute number/femur±SD of each population (n≥6 per group) is shown.
At 10 days post-treatment, BM was analyzed by flow cytometry to determine frequency of blast cells. Average frequency±SD (n 6 per group). Note that this experiment used clinical dose (normal) or [Low]
Alternatively, a single injection on day 1 of 0.8 or 2.5 μg/g of DXR-loaded nanoparticles (NanoDXR) was given with and without chemotherapy. At 10 days post-treatment, BM was analyzed by flow cytometry to determine frequency of LSCs. Shown is average frequency±SD (n 6 per group).
Alternatively, a single injection on day 1 of 0.8 or 2.5 μg/g of DXR-loaded nanoparticles (NanoDXR) was given with and without chemotherapy. At 10 days post-treatment, BM was analyzed by flow cytometry to determine frequency of HSPCs. Shown is average frequency±SD (n 6 per group).
Whole bone marrow was isolated from uninduced HSC-SCL-Cre^+ Pten^fx/fx βcat^fx(Exon3)/+ (Pn:β-cat^Act) mice and combined with an equal portion of Cre negative bone marrow from a littermate and transplanted into irradiated (10 Grays) B6.SJL-Ptprc^a Pepc^b/BoyJ (Ptprc) recipients.
Chemotherapy for the animal model consisted of Nelarabine (Selleck) and Dexamethasone (BioVision) administered daily for 5 days consecutively. 43.4 mg/ml Nelarabine was administered intravenously via the tail vain according to the formula: Body Weight (g)×5=volume to inject (μl), which yielded 217 mg/kg. 2.5 mg/ml Dexamethasone was injected intraperitoneally according to the formula: Body Weight (g)×4=volume to inject (μl), yielding 10 mg/kg. […] [Low] NanoDXR treatment used doxorubicin nanoparticles (Tran et al. 2014) administered as a single IV injection once per week on day 1 relative to above treatments using 0.8 mg/kg. Maintenance [Low] NanoDXR consisted of once per week injections of 0.4 mg/kg. Groups combining Nelarabine with Doxorubicin used a single injection containing both drugs. All drugs were solubilized in 45% (2-Hydroxypropyl)-p-cyclodextrin (HBC) or 0.9% NaCl.
Cells were collected from bone marrow (femur and tibia), spleen, peripheral blood, and thymus. For cell surface phenotyping, a lineage cocktail (Lin) was used including CD3 (for HSPC but not LSC analysis), CD4, CD8, Mac-1, Gr, B220, IgM, and Ter119 (eBioscience, San Diego, CA). Monoclonal antibodies against CD3 (separate fluorophore for LSC analysis), Sca-1, c-Kit, CD45.1, and CD45.2 were also used where indicated. Cell sorting and analysis were performed using an inFlux (BD), MoFlo (Dako, Ft. Collins, CO) and/or CyAn ADP (Dako, Ft. Collins, CO). Data analysis was performed using FlowJo software (Ashland, OR).

pS^552-β-cat^+ LSCs = test: Pilot clinical trial of low-dose DNR in relapsed/refractory adult AML; type: in vivo, human; settings: low-dose DNR 6.75 mg/m^2 daily ×5; BM day 0 vs day 8
Excerpt: This was registered at clinicaltrials.gov (identifier NCT02914977). All patients provided informed consent according to institutional guidelines. At least two prior induction attempts were required for fit patients with primary refractory leukemia; unfit or relapsed patients were allowed entry with one prior therapy. There was no limit on number of prior therapies. […] Exclusion criteria included presence of acute promyelocytic leukemia, CNS leukemia or total lifetime anthracycline exposure exceeding the equivalent of 900 mg/m^2 of DNR. Treatment consisted of bone marrow aspiration for correlative studies followed by one cycle of low dose DNR (6.75 mg/m^2×5 consecutive days, days 1-5) and second bone marrow aspiration on day 8. Effects on LSC population were measured by flow cytometry. Adverse events (AEs) and laboratory values were monitored for safety. This study is compliant with all relevant ethical regulations regarding research involving human participants and was approved by the Human Subjects Committee at the University of Kansas.

For `COc1cccc2c1C(=O)c1c(O)c3c(c(O)c1C2=O)C[C@@](O)(C(C)=O)C[C@@H]3O[C@H]1C[C@H](N)[C@H](O)[C@H](C)O1` [DNR, Daunorubicin], the “inhibition of pS552-β-catenin compared with DXR” value [1] was “similarly inhibits pS^552-β-catenin”, the “LSC, HSPC and blast cell frequency compared with low-dose doxorubicin” value [2] was “performs similarly to low-dose doxorubicin” and the “patients with substantial reductions in pS552-β-cat+ LSCs” value (pS^552-β-cat^+ LSCs) was 5/10. The “patients with unchanged pS552-β-cat+ LSCs” value (pS^552-β-cat^+ LSCs) was 3/8.
